Assay results from publication PMC8880564, “Design, Synthesis, and Biological Evaluation of a Novel VEGFR-2 Inhibitor Based on a 1,2,5-Oxadiazole-2-Oxide Scaffold with MAPK Signaling Pathway Inhibition” (Pharmaceuticals, 2022).

Key:
Type in all cases: cell-based
[1] = system: NCI-59 human cancer cell lines; experiment: NCI-60 one-dose SRB screening, full panel and subpanels; conditions: for activity at 10 µM: mean over the full panel, 10 µM one dose, 48 h, SRB, read-out: growth percentage, Mean
Protocol: The structures of the synthesized compounds 6a–h, 12a–c, 11, 13a–c, and 14a–c were submitted to the National Cancer Institute’s Developmental Therapeutics Program (NCI-DTP), and all of them were selected for preliminary in vitro anticancer activity screening against NCI-59 human cancer cell lines at a concentration of 10 µM, using the sulforhodamine B (SRB) assay to determine the growth percentage and cell viability.
The in vitro NCI-60 cell line screening assay was conducted at the National Cancer Institute (NCI), Bethesda, USA against 59 cancer cell lines representing 9 types of cancers, as reported earlier. Briefly, the human cancer cell lines were grown in RPMI 1640 medium containing 5% fetal bovine serum and 2 mM L-glutamine and inoculated into 96-well microtiter plates in 100 μL (5000 to 40,000 cells/well). Then, the plates were incubated at 37 °C, 5% CO2, 95% air, and 100% relative humidity for 24 h. After that, two plates of each cell line were fixed in situ with TCA, to represent cell population at time zero (Tz). The tested compounds were dissolved in DMSO at 400-fold and added so that the final concentration became 10 μM. The plates were then incubated for an additional 48 h followed by the addition of cold TCA to terminate the assay in case of adherent cells. Then, the cells were fixed in situ by cold 50% (w/v) TCA (50 μL; final concentration, 10% TCA) and incubated for 1 h at 4 °C. After discarding the supernatant, the plates were washed 5 times with tap water and air dried. Sulforhodamine B (SRB) solution (100 μL) at 0.4% (w/v) in 1% HOAc was added to each well, and plates were incubated for 10 min. at rt. Then, washing with 1% acetic acid was conducted 5 times to remove the unbound dye followed by air drying. After that, 10 mM trizma base was added to solubilize the bound stain, and the absorbance was read on an automated plate reader at a wavelength of 515 nm. On the other hand, the methodology for suspension cells was the same except that 50 μL of 80% TCA (final concentration, 16% TCA) was gently added to terminate the assay by fixing settled cells at the bottom of the wells. Percentage growth inhibition (GI%) was calculated as follows:
Growth percentage=Ti (test growth in the presence of compound at 10 µM )−Tz (time zero)/C (control growth)−Tz (time zero)×100 for Ti ≥ Tz;
Growth percentage=Ti (test growth in the presence of compound at 10 µM )−Tz (time zero)/Tz (time zero)×100 for Ti < Tz.
where values of 100, 40, 0, −40, and −100 mean no GI, 60% GI, no net G, 40% lethality, and all cells are dead, respectively.
Data are expressed as a one-dose mean graph of growth percentages including the mean, delta, and range.

DU-145 = experiment: NCI-60 one-dose SRB screening; conditions: Homo sapiens, DU-145, Prostate Cancer, 10 µM one dose, 48 h, read-out: growth percentage
SF-539 = experiment: NCI-60 one-dose SRB screening; conditions: Homo sapiens, SF-539, CNS Cancer, 10 µM one dose, 48 h, read-out: growth percentage
A498 = experiment: NCI-60 one-dose SRB screening; conditions: Homo sapiens, A498, Renal Cancer, 10 µM one dose, 48 h, read-out: growth percentage
HS 578T = experiment: NCI-60 one-dose SRB screening; conditions: Homo sapiens, Breast Cancer, 10 µM one dose, 48 h, read-out: growth percentage
MCF7 = experiment: NCI-60 one-dose SRB screening; conditions: Homo sapiens, MCF7, Breast Cancer, 10 µM one dose, 48 h, read-out: growth percentage
KM12 = experiment: NCI-60 one-dose SRB screening; conditions: Homo sapiens, KM12, Colon Cancer, 10 µM one dose, 48 h, read-out: growth percentage
MOLT-4 = experiment: NCI-60 one-dose SRB screening; conditions: Homo sapiens, MOLT-4, Leukemia, 10 µM one dose, 48 h, read-out: growth percentage
SR = experiment: NCI-60 one-dose SRB screening; conditions: Homo sapiens, Leukemia, 10 µM one dose, 48 h, read-out: growth percentage
LOX IMVI = experiment: NCI-60 one-dose SRB screening; conditions: Homo sapiens, Melanoma, 10 µM one dose, 48 h, read-out: growth percentage
SK-MEL-5 = experiment: NCI-60 one-dose SRB screening; conditions: Homo sapiens, SK-MEL-5, Melanoma, 10 µM one dose, 48 h, read-out: growth percentage
UACC-62 = experiment: NCI-60 one-dose SRB screening; conditions: Homo sapiens, UACC-62, Melanoma, 10 µM one dose, 48 h, read-out: growth percentage
HCT-15 = experiment: NCI-60 one-dose SRB screening; conditions: Homo sapiens, HCT-15, Colon Cancer, 10 µM one dose, 48 h, read-out: growth percentage
SF-268 = experiment: NCI-60 one-dose SRB screening; conditions: Homo sapiens, SF-268, CNS Cancer, 10 µM one dose, 48 h, read-out: growth percentage
T-47D = experiment: NCI-60 one-dose SRB screening; conditions: Homo sapiens, T47D, Breast Cancer, 10 µM one dose, 48 h, read-out: growth percentage
PC-3 = experiment: NCI-60 one-dose SRB screening; conditions: Homo sapiens, PC-3, Prostate Cancer, 10 µM one dose, 48 h, read-out: growth percentage

Compound	inhibition at 10 µM ([1]; Homo sapiens, full NCI-59 panel, 10 µM, read-out: mean growth inhibition % (MGI%, GI%)) [%]	activity at 10 µM ([1]; Homo sapiens) [%]	activity at 10 µM (DU-145) [%]	activity at 10 µM (SF-539) [%]	activity at 10 µM (A498) [%]	activity at 10 µM (HS 578T) [%]	activity at 10 µM (MCF7) [%]	activity at 10 µM (KM12) [%]	activity at 10 µM (MOLT-4) [%]	activity at 10 µM (SR) [%]	activity at 10 µM (LOX IMVI) [%]	activity at 10 µM (SK-MEL-5) [%]	activity at 10 µM (UACC-62) [%]	activity at 10 µM (HCT-15) [%]	activity at 10 µM (SF-268) [%]	activity at 10 µM (T-47D) [%]	activity at 10 µM (PC-3) [%]	enhancement of the growth percentage (mean) ([1]; full NCI-59 panel, 10 µM) [%]
Cc1nn(-c2ccccc2)c2nc(CNc3ccc(NCc4c(-c5ccccc5)no[n+]4[O-])cc3)[nH]c(=O)c12 [14b, 3-(((4-(((3-methyl-4-oxo-1-phenyl-4,5-dihydro-1H-pyrazolo[3,4-d]pyrimidin-6-yl)methyl)amino)phenyl)amino)methyl)-4-phenyl-1,2,5-oxadiazole 2-oxide]	8.22	91.8	90.7	99.4	97.9	104	77	94.5	61.5	73	97.6	108	98.5	80.6	84.9	75.5	77.7	–
Cc1nn(-c2ccc(Br)cc2)c2nc(CNc3ccc(NCc4c(-c5ccccc5)no[n+]4[O-])cc3)[nH]c(=O)c12 [14c, 3-(((4-(((1-(4-bromophenyl)-3-methyl-4-oxo-4,5-dihydro-1H-pyrazolo[3,4-d]pyrimidin-6-yl)methyl)amino)phenyl)amino)methyl)-4-phenyl-1,2,5-oxadiazole 2-oxide]	–	103	107	102	104	108	88.1	106	87.2	95.2	102	104	105	97.3	95.2	103	96.6	3.35
Nc1ccc(NCc2c(-c3ccccc3)no[n+]2[O-])cc1 [compound 11, 3-(((4-aminophenyl)amino)methyl)-4-phenyl-1,2,5-oxadiazole 2-oxide]	–	107	112	104	108	109	85.5	103	91.8	104	107	112	95.5	104	101	101	95.1	–
